Measurements as given in the supplement of paper PMC11061612.

Experiments:
[1] = test system: EMC-BAC-2 (Non-Small Cell Lung Carcinoma); test: Bliss excess, mean over the matrix (fraction); higher = more synergy
In short: (§1)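 Bliss excess equals the observed combination effect minus the expected value EA + EB − EA·EB, where EA and EB are the effects of each agent alone. Combination Emax is the second-highest inhibition within the matrix. Inhibition was scaled from CellTiter-Glo 2.0 luminescence, with 0 set by vehicle wells and 1 by blank wells, after 72 hours of two-drug dosing of cells plated in 1536-well plates.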

GI-1 (Glioblastoma) = test: as above
In short: as §1

IMR-5 (Neuroblastoma) = test: as above
In short: as §1

[2] = test system: KYSE-150 (Esophageal Squamous Cell Carcinoma); test: as above
In short: as §1

[3] = test system: KYSE-50 (Esophageal Squamous Cell Carcinoma); test: as above
In short: as §1

NB7 (Neuroblastoma) = test: as above
In short: as §1

[4] = test system: NCI-H1573 (Lung Adenocarcinoma); test: as above
In short: as §1

[5] = test system: NCI-H2347 (Lung Adenocarcinoma); test: as above
In short: as §1

[6] = test system: NCI-N87 (Gastric Carcinoma); test: as above
In short: as §1

[7] = test system: OCUM-1 (Gastric Carcinoma); test: as above
In short: as §1

[8] = test system: PF-382 (T-Lymphoblastic Leukemia); test: as above
In short: as §1

RPMI-7951 (Melanoma) = test: as above
In short: as §1

[9] = test system: SNU-C1 (Colorectal Carcinoma); test: as above
In short: as §1

[10] = test system: ASH-3 (Thyroid Gland Carcinoma); test: combination Emax (second highest fraction inhibited in the dose matrix, 72 h); higher = more inhibition; extreme values may be limits of the assay
In short: as §1

EW-18 (Ewing's Sarcoma) = test: as above
In short: as §1

[11] = test system: KINGS-1 (Low Grade Glioma); test: as above
In short: as §1

[12] = test system: LOU-NH91 (Squamous Cell Lung Carcinoma); test: as above
In short: as §1

[13] = test system: OCUM-1 (Gastric Carcinoma); test: as above
In short: as §1

[14] = test system: SNU-C1 (Colorectal Carcinoma); test: as above
In short: as §1

[15] = test system: VMRC-LCD (Lung Adenocarcinoma); test: as above
In short: as §1

Row | SMILES | Bliss excess [1] | Bliss excess (GI-1 (Glioblastoma)) | Bliss excess (IMR-5 (Neuroblastoma)) | Bliss excess [2] | Bliss excess [3] | Bliss excess (NB7 (Neuroblastoma)) | Bliss excess [4] | Bliss excess [5] | Bliss excess [6] | Bliss excess [7] | Bliss excess [8] | Bliss excess (RPMI-7951 (Melanoma)) | Bliss excess [9] | combination Emax [10] | combination Emax (EW-18 (Ewing's Sarcoma)) | combination Emax [11] | combination Emax [12] | combination Emax [13] | combination Emax [14] | combination Emax [15]
1 | Cc1c2c(nn1C)CSCc1cc(n(C)n1)CSc1cc(c3ccccc3c1)OCCCc1c(C(=O)O)n(C)c3c-2c(Cl)ccc13 [AZD5991] + Cc1cc2ncnn2cc1Nc1ncc2c(n1)n(C1CCOCC1)c(=O)n2C [AZD7648] (first compound max 1 µM, 7x7, partner max 10 µM) | -0.0141 | 0.0021 | 0.0226 | -0.0195 | -0.0461 | -0.0079 | 0.0523 | -0.0472 | -0.0367 | -0.0093 | 0.038 | -0.0317 | -0.0742 | 0.358 | 0.936 | 0.326 | 0.278 | 0.215 | 0.412 | 0.215
2 | CN(CCO)CC[C@H](CSc1ccccc1)Nc1ccc(S(=O)(=O)NC(=O)c2ccc(N3CCC([C@@H](O)c4ccccc4-c4ccc(Cl)cc4)CC3)cc2)cc1S(=O)(=O)C(F)(F)F [AZD4320] + CCN(CCO)CCCOc1ccc2c(Nc3cc(CC(=O)Nc4cccc(F)c4)[nH]n3)ncnc2c1 [AZD2811] (first compound max 1 µM, 7x7, partner max 1 µM) | -0.0251 | 0.144 | -0.0229 | 0.007 | -0.0211 | 0.0258 | -0.0135 | -0.0472 | 0.0195 | 0.0648 | 0.0518 | 0.0295 | -0.0263 | 0.619 | 0.888 | 0.498 | 0.877 | 0.924 | 0.531 | 0.582
3 | Cn1cnc2c(F)c(Nc3ccc(Br)cc3Cl)c(C(=O)NOCCO)cc21 [Selumetinib] + C[C@@H]1COCCN1C2=NC(=NC(=C2)C3(CC3)[S@](=N)(=O)C)C4=C5C=CNC5=NC=C4 [AZD6738] (first compound max 10 µM, 7x7, partner max 10 µM) | 0.0202 | -0.0338 | 0.0151 | 0.0348 | 0.0013 | -0.0257 | 0.0488 | 0.0844 | -0.0604 | -0.0359 | -0.0047 | 0.0239 | -0.0453 | 0.607 | 0.696 | 0.292 | 0.353 | 0.951 | 0.641 | 0.732
4 | Cn1cnc2c(F)c(Nc3ccc(Br)cc3Cl)c(C(=O)NOCCO)cc21 [Selumetinib] + C=CCn1c(=O)c2cnc(Nc3ccc(N4CCN(C)CC4)cc3)nc2n1-c1cccc(C(C)(C)O)n1 [AZD1775] (first compound max 10 µM, partner max 1 µM) | -0.0711 | -0.0387 | 0.0121 | 0.0705 | -0.0209 | -0.0305 | -0.0331 | -0.0164 | 0.023 | -0.0137 | 0.0137 | -0.0482 | 0.016 | 0.367 | 0.526 | 0.361 | 0.423 | 0.944 | 0.627 | 0.702
5 | Cc1nc(Nc2ncc(C(=O)Nc3c(C)cccc3Cl)s2)cc(N2CCN(CCO)CC2)n1 [Dasatinib] + CC(=O)Nc1cccc(-n2c(=O)n(C3CC3)c(=O)c3c(Nc4ccc(I)cc4F)n(C)c(=O)c(C)c32)c1 [Trametinib] (first compound max 2 µM, 7x7, partner max 1 µM) | -0.0795 | 0.0396 | -0.0059 | -0.035 | 0.043 | 0.0262 | 0.0311 | 0.153 | -0.0339 | 0.0155 | 0.198 | -0.0745 | -0.0616 | 0.855 | 0.13 | 0.465 | 0.674 | 0.988 | 0.578 | 0.163
6 | CN(CCO)CC[C@H](CSc1ccccc1)Nc1ccc(S(=O)(=O)NC(=O)c2ccc(N3CCC([C@@H](O)c4ccccc4-c4ccc(Cl)cc4)CC3)cc2)cc1S(=O)(=O)C(F)(F)F [AZD4320] + C[C@@H]1COCCN1C2=NC(=NC(=C2)C3(CC3)[S@](=N)(=O)C)C4=C5C=CNC5=NC=C4 [AZD6738] (first compound max 1 µM, 7x7, partner max 10 µM) | -0.0695 | -0.0203 | 0.102 | -0.0536 | -0.0537 | -0.0181 | -0.0524 | -0.0256 | -0.0456 | -0.0134 | -0.0126 | -0.0137 | -0.115 | 0.662 | 0.897 | 0.53 | 0.575 | 0.914 | 0.658 | 0.611
7 | CCN(CCO)CCCOc1ccc2c(Nc3cc(CC(=O)Nc4cccc(F)c4)[nH]n3)ncnc2c1 [AZD2811] + C[C@@H]1COCCN1C2=NC(=NC(=C2)C3(CC3)[S@](=N)(=O)C)C4=C5C=CNC5=NC=C4 [AZD6738] (first compound max 1 µM, 7x7, partner max 10 µM) | -0.0939 | 0.0144 | -0.0339 | -0.0466 | -0.051 | 0.0084 | -0.0613 | -0.0319 | -0.0855 | -0.0188 | -0.089 | -0.0291 | -0.122 | 0.486 | 0.743 | 0.302 | 0.27 | 0.708 | 0.435 | 0.708
8 | CC1(C)CCC(CN2CCN(c3ccc(C(=O)NS(=O)(=O)c4ccc(NCC5CCOCC5)c([N+](=O)[O-])c4)c(Oc4cnc5[nH]ccc5c4)c3)CC2)=C(c2ccc(Cl)cc2)C1 [Venetoclax] + C[C@@H](Nc1cc(F)cc(F)c1)c1cc(C(=O)N(C)C)cc2c(=O)cc(N3CCOCC3)oc12 [AZD8186] (first compound max 1 µM, 7x7, partner max 3 µM) | -0.0393 | -0.0091 | 0.0793 | -0.0281 | -0.0295 | -0.0235 | -0.0247 | -0.0045 | -0.111 | -0.0263 | 0.0111 | -0.0344 | -0.0749 | 0.332 | 0.599 | 0.332 | 0.221 | 0.137 | 0.063 | 0.093
9 | NC1(C(=O)N[C@@H](CCO)c2ccc(Cl)cc2)CCN(c2ncnc3[nH]ccc23)CC1 [Capivasertib] + COc1nnc2ccc(N3CCC(c4ccc(OCCN5CCN(C)C(=O)[C@H]5C)cc4)CC3)nn12 [AZD5153] (first compound max 10 µM, 7x7, partner max 1 µM) | 0.0396 | 0.0578 | 0.0285 | 0.0618 | -0.0054 | -0.0483 | -0.0011 | -0.033 | -0.0314 | 0.0318 | 0.0451 | 0.0498 | -0.0147 | 0.831 | 0.787 | 0.349 | 0.656 | 0.596 | 0.813 | 0.454
10 | CCN(CCO)CCCOc1ccc2c(Nc3cc(CC(=O)Nc4cccc(F)c4)[nH]n3)ncnc2c1 [AZD2811] + O=C(c1cc(Cc2n[nH]c(=O)c3ccccc23)ccc1F)N1CCN(C(=O)C2CC2)CC1 [Olaparib] (first compound max 1 µM, 7x7, partner max 10 µM) | 0.0112 | 0.0685 | -0.0208 | 0.0291 | 0.0397 | 0.0598 | -0.016 | -0.0303 | 0.0237 | 0.0383 | -0.0335 | 0.0463 | -0.0016 | 0.249 | 0.667 | 0.241 | 0.332 | 0.379 | 0.276 | 0.545
11 | CN(C)CCCOc1ccc(-c2ccc3ncc4c(c3c2)n(C2CCOCC2)c(=O)n4C)cn1 [AZD0156] + CCN(CCO)CCCOc1ccc2c(Nc3cc(CC(=O)Nc4cccc(F)c4)[nH]n3)ncnc2c1 [AZD2811] (first compound max 1 µM, 7x7, partner max 1 µM) | -0.0005 | 0.0555 | -0.0257 | -0.0382 | -0.0128 | -0.0082 | -0.0157 | -0.0299 | 0.0046 | 0.032 | -0.0115 | -0.0152 | -0.0245 | 0.155 | 0.678 | 0.167 | 0.208 | 0.332 | 0.205 | 0.545
12 | Cc1c2c(nn1C)CSCc1cc(n(C)n1)CSc1cc(c3ccccc3c1)OCCCc1c(C(=O)O)n(C)c3c-2c(Cl)ccc13 [AZD5991] + C1CN(CCC1(C(=O)N[C@@H](CCO)C2=CC=C(C=C2)Cl)N)C3=NC=NC4=C3C=CN4 [Capivasertib] (first compound max 1 µM, 7x7, partner max 3 µM) | 0.0302 | 0.045 | 0.0045 | 0.039 | -0.0036 | -0.0133 | 0.0057 | -0.0313 | -0.0516 | -0.0032 | -0.0203 | 0.0035 | -0.0004 | 0.267 | 0.95 | 0.242 | 0.427 | 0.219 | 0.576 | 0.129
